Data reported in patent US20090220982A1, “COMPOSITIONS AND METHODS FOR DETERMINING NEPHROTOXICITY” (Achaogen Inc.., priority 2008, published 2009).
Read-outs that look alike come from different tables or passages of the source.

Key:
[1] = β-thalassemia patients; cited from earlier work
[2] = cited from earlier work
erythrocytes = conditions: cited from earlier work
[3] = cited from earlier work; remark: listed apart in the source
[4] = co-therapy with gentamicin, guinea pigs; cited from earlier work
HK-2 cells = assay: HK-2 in vitro nephrotoxicity assay (CASPASEGLO caspase luminescence); format: cell-based, human
Description: An in vitro nephrotoxicity assay was conducted using the human kidney epithelial cell line, HK-2.
HK-2 cells were cultured in KSFM, with 5 ng/mL epidermal growth factor (EGF) and 0.05 mg/mL bovine pituitary extract (BPE). Cells were maintained at sub-confluence and used to initiate the assay when they reached 80% confluence.
Diluted compounds were added to plates. The plates were subsequently returned to the incubator overnight.
Luminescence was detected using a plate reading luminometer.
A human kidney proximal tubule cell line, HK-2 (ATCC #CRL-2190) is cultured in Keratinocyte-Serum Free Medium (K-SFM) (Invitrogen 17005-042) with 5 ng/mL of human recombinant epidermal growth factor (EGF) and 0.05 mg/mL Bovine Pituitary Extract (BPE). Culture medium containing EGF and/or BPE is not filtered subsequent to growth factor addition, and fresh growth factors are added to the culture medium after two weeks. The HK-2 cells are split so that they are 80% confluent on the day they need to be plated into 96 well plates. These cells are not allowed to become confluent.
Remove the HK-2 cells from the plate using trypsin-EDTA. Wash the plate with D-PBS. Add 0.5 mL trypsin, and incubate for 1 minute at room temperature or until cells start to lift off plate. Inactivate trypsin and harvest cells by adding prewarmed culture medium (37° C.) to the plate. […]
Thaw the CASPASEGLO reagents (CASPASEGLO 3/7 Assay, Promega G8093 10×10 mL or G8092 100 mL) at room temperature. For reagent addition to plates after 31 hour compound incubation: (i) remove plates from incubator (30.5 hours after adding compounds) for approximately 30 minutes to bring to room temperature; (ii) mix CASPASEGLO reagents according to manufacturer's instructions; (iii) add 50 μL of reagent/well to 96 well plates using BioMek®FX with tips 2 mm from bottom of reservoir well (Beckman Coulter); (iv) place plates on shaker platform and shake gently for 30 seconds; (v) incubate at room temperature for 30 minutes; (vi) place plates on shaker platform and shake gently for 30 seconds; and (vii) read plate 30-60 minutes after reagents are added, Analyst™ HT (LJL Biosystems™). The settings for the Analyst™ HT are: (i) default luminescence method; (ii) luminescence height, 1.5 mm; (iii) 5 readings per well; (iv) integration time of 100000 μs; and (v) attenuator out.
The average luminescence values are calculated along with the standard deviation of the replicates. The concentration of the aminoglycoside tested is graphed versus the corresponding luminescence reading. The area under the curve (AUC) is calculated for each experimental compound and for gentamicin. The EC50 can then be calculated for each experimental compound and gentamicin, using methods well known in the art.

[5] = 14-day rat nephrotoxicity model
Text: The rat in vivo assays provided information in the form of acute toxicity, changes in Blood Urea Nitrogen (BUN) and serum creatinine levels over time, as well as histopathology changes in the kidneys of animals sacrificed at the end of the study. Elevation in BUN or serum creatinine is one of the markers routinely monitored in the clinic as an indication of aminoglycoside nephrotoxicity.

[6] = patients, cited from earlier work
LLC-PK1 cells = conditions: gentamicin introduced by electroporation; cited from earlier work
[7] = rats, cited from earlier work
[8] = test system: renal brush border membranes; conditions: in vitro; cited from earlier work

Question: Which “toxicity of oral doses for one year” value [1] does the source give for `O=C(O)c1cccc(O)c1O` [DHB, 2,3-dihydroxybenzoate] here?
Answer: The value was “no toxicity was observed”.

Question: And the “solubility in aqueous solution” value [2]?
Answer: Its value is “poor solubility in aqueous solution”.

Question: What about the “H2O2 induced membrane peroxidation” value (erythrocytes) of the same compound?
Answer: Its value is “inhibits H2O2 induced membrane peroxidation in erythrocytes”.

Question: And the “elevations in BUN and serum creatinine after gentamicin” value ([3]; rat, gentamicin treatment for eight days)?
Answer: Its value is “reduced elevations in blood, urea, nitrogen (BUN) and serum creatinine”.

Question: And the “protection from gentamicin nephrotoxicity” value ([3]; rats)?
Answer: The value was “only partial protection from gentamicin nephrotoxicity”.

Question: What about the “shifts in auditory thresholds” value [4] of the same compound?
Answer: The value was “significantly lower shifts in auditory thresholds”.

Question: With `NCC[C@H](O)C(=O)N[C@@H]1C[C@H](N)[C@@H](O[C@H]2O[C@H](CN)[C@@H](O)[C@H](O)[C@H]2O)[C@H](O)[C@H]1O[C@H]1O[C@H](CO)[C@@H](O)[C@H](N)[C@H]1O` [amikacin] as the compound, how does the “dose response curve of luminescence signal (induction of apoptosis) / EC50” value (HK-2 cells) read?
Answer: The value was “did not produce a maximal response at the highest concentration tested”.

Question: And the “rank order of nephrotoxicity by EC50 in the in vitro HK-2 assay” value (HK-2 cells)?
Answer: Its value is “least nephrotoxic aminoglycoside tested”.

Question: And the “rank order of relative in vivo nephrotoxicity” value ([5]; rat, in vivo)?
Answer: Its value is “followed by amikacin, neomycin, and gentamicin”.

Question: For `CC(=O)Oc1ccccc1C(=O)O` [aspirin], which “hearing loss versus gentamicin alone” value ([6]; intravenous gentamicin and oral aspirin) is on record?
Answer: The value was “significantly less hearing loss”.

Question: And the “side effect of aspirin treatment” value [6]?
Answer: Its value is “caused gastric bleeding in some patients”.

Question: For `[H]/N=C(/N)N[C@H]1[C@H](O)[C@@H](O)[C@H](O[C@@H]2O[C@@H](C)[C@](O)(C=O)[C@H]2O[C@@H]2O[C@@H](CO)[C@H](O)[C@@H](O)[C@@H]2NC)[C@@H](N/C(N)=N\[H])[C@@H]1O` [streptomycin], which “rank order of relative in vivo nephrotoxicity” value ([5]; rat, in vivo) is on record?
Answer: Its value is “least nephrotoxic aminoglycoside tested”.

Question: What does the source list for gentamicin?
Answer: dose response curve of luminescence signal (induction of apoptosis) / EC50 (HK-2 cells; HK-2 cells, highest concentration tested 500 μg/mL, FIG. 2): produced a full dose response curve over the concentration range tested; rank order of nephrotoxicity by EC50 in the in vitro HK-2 assay (HK-2 cells; six compounds, FIG. 3A): followed by apramycin, gentamicin and neomycin, compound A, and compound B; rank order of relative in vivo nephrotoxicity ([5]; 14-day rat model, Example 3, FIG. 4): followed by amikacin, neomycin, and gentamicin; rank order of nephrotoxicity by minimum concentration of compound that produced an increase in BUN ([5]; 14-day rat model, six compounds, FIG. 3A): followed by apramycin, gentamicin and neomycin, compound A, and compound B; apoptosis response (LLC-PK1 cells): dose-dependent apoptosis response at much lower gentamicin concentrations

Question: What does the source list for polyaspartic acid?
Answer: creatinine elevation or histopathological changes ([7]; 16 weeks after the two week treatment): no creatinine elevation or histopathological changes; gentamicin concentration in kidneys versus gentamicin alone ([7]; end of 14 day treatment, co-dosed with polyaspartic acid): five-fold higher gentamicin concentration in their kidneys; aminoglycoside binding to renal brush border membranes [8]: prevent aminoglycoside binding to renal brush border membranes
